Laboratory results reported in ChEMBL document CHEMBL4480438, “Inhibitory Properties of ATP-Competitive Coumestrol and Boldine Are Correlated to Different Modulations of CK2 Flexibility” (J Nat Prod, 2019).

Molecular target: Casein kinase 2 (Homo sapiens, UniProt P67870+P68400+P19784+Q8NEV1)
Assay: Inhibition of CK2 (unknown origin)
Format: protein assay

For `COc1cc2c(cc1O)C[C@H]1c3c(cc(O)c(OC)c3-2)CCN1C` [BOLDINE], the IC50 was 700 nM.
